In PubChem BioAssay (NCI):
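Tested at 5 concentrations; 48 h exposure; 96-well plates; endpoints linearly interpolated, else capped at highest concentration. TGI denotes the concentration required for complete inhibition of growth.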

What was measured:
Assay in all cases: inhibition of tumour cell growth, NCI panel, 48 h
[1] = tested on: 786-0 renal
[2] = tested on: A498 renal
[3] = tested on: A549 NSCLC
[4] = tested on: ACHN renal
[5] = tested on: BT-549 breast
[6] = tested on: CAKI-1 renal
[7] = tested on: CCRF-CEM leukemia
[8] = tested on: COLO 205 colon
[9] = tested on: DU-145 prostate
[10] = tested on: EKVX NSCLC
[11] = tested on: HCC-2998 colon
[12] = tested on: HCT-116 colon
[13] = tested on: HCT-15 colon
[14] = tested on: HOP-62 NSCLC
[15] = tested on: HOP-92 NSCLC
[16] = tested on: HT29 colon
[17] = tested on: IGROV1 ovarian
[18] = tested on: K-562 leukemia
[19] = tested on: KM12 colon
[20] = tested on: LOX IMVI melanoma
[21] = tested on: M14 melanoma
[22] = tested on: MALME-3M melanoma
[23] = tested on: MCF7 breast
[24] = tested on: MDA-MB-231 breast
[25] = tested on: MDA-MB-435
[26] = tested on: MDA-N
[27] = tested on: MOLT-4 leukemia
[28] = tested on: NCI-H226 lung
[29] = tested on: NCI-H23 lung
[30] = tested on: NCI-H460 lung
[31] = tested on: NCI-H522 lung
[32] = tested on: NCI/ADR-RES ovarian
[33] = tested on: OVCAR-3 ovarian
[34] = tested on: OVCAR-4 ovarian
[35] = tested on: OVCAR-5 ovarian
[36] = tested on: PC-3 prostate
[37] = tested on: RPMI-8226 leukemia
[38] = tested on: RXF 393 renal
[39] = tested on: SF-268 CNS
[40] = tested on: SF-295 CNS
[41] = tested on: SF-539 CNS
[42] = tested on: SK-MEL-2 melanoma
[43] = tested on: SK-MEL-28 melanoma
[44] = tested on: SK-MEL-5 melanoma
[45] = tested on: SK-OV-3 ovarian
[46] = tested on: SN12C renal
[47] = tested on: SNB-19 CNS
[48] = tested on: SNB-75 CNS
[49] = tested on: SR leukemia
[50] = tested on: SW-620 colon
[51] = tested on: T-47D breast
[52] = tested on: TK-10 renal
[53] = tested on: U251 CNS
[54] = tested on: UACC-257 melanoma
[55] = tested on: UACC-62 melanoma
[56] = tested on: UO-31 renal
[57] = tested on: HL-60(TB) leukemia
[58] = tested on: HS 578T breast
[59] = tested on: OVCAR-8 ovarian

Measured: TGI

Cc1oc(N)c(S(=O)(=O)/C(C#N)=C/c2ccccc2[N+](=O)[O-])c1C
40.3 µM: [8]
46.3 µM: [33]
59.7 µM: [3]
53.9 µM: [6]
28.5 µM: [20]
40.2 µM: [49]
75.2 µM: [37]
64.2 µM: [43]
48.2 µM: [5]
92.6 µM: [1]
62.5 µM: [27]
41 µM: [31]
82.6 µM: [24]
47.8 µM: [46]
35.1 µM: [16]
41.4 µM: [21]
> 100 µM: [2] | [4] | [9] | [10] | [11] | [13] | [14] | [15] | [17] | [22] | [23] | [25] | [28] | [30] | [32] | [34] | [39] | [40] | [42] | [45] | [48] | [52] | [54]
99 µM: [36]
68.5 µM: [7]
73.2 µM: [19]
78.5 µM: [12]
52.8 µM: [38]
63.1 µM: [50]
46.9 µM: [26] | [55]
30.6 µM: [56]
38.1 µM: [44]
77.4 µM: [47]
79.4 µM: [29]
61.4 µM: [41]
39.2 µM: [35]
36.3 µM: [53]
60.4 µM: [18]
66.8 µM: [51]

CN1CCC(O)(OC(=O)C(c2ccccc2)C2(O)CCCC2)CC1 (stereo not drawn)
> 100 µM: [1] | [2] | [3] | [4] | [6] | [7] | [8] | [9] | [10] | [11] | [12] | [13] | [57] | [14] | [15] | [58] | [16] | [17] | [18] | [19] | [20] | [21] | [22] | [23] | [24] | [25] | [26] | [27] | [28] | [29] | [30] | [31] | [32] | [33] | [34] | [35] | [59] | [36] | [37] | [38] | [39] | [40] | [41] | [42] | [43] | [44] | [45] | [46] | [47] | [48] | [49] | [50] | [51] | [52] | [53] | [54] | [55]
